Data: patent US20110105738A1, “DIARYL HEPATONOID-BASED COMPOUNDS USEFUL AS VIRUS INHIBITORS” (priority 2008, published 2011)
Read-outs that look alike come from different tables or passages of the source.

What was measured:
[1] = tested on: avian influenza virus KBNP-0028 (KCTC 10866BP); type: cell-based, A/chicken/Korea/SNU0028/2000(H9N2)
[2] = tested on: CEF (chicken embryo fibroblasts)

`O=C(/C=C/CCc1ccc(O)c(O)c1)CCc1ccc(O)c(O)c1` [12B-AJ-7B, 1,7-bis(3,4-dihydroxyphenyl)-4(E)-hepten-3-one] was tested. Which “Number of wells which hemagglutination occurs (among 6 wells)” value (shortened to “Number”) ([1]; 12.5 μg/mL) did it give?
Its value is 3.

And the “Number” value ([1]; 25 μg/mL)?
Its value is 3.

What about the “Number” value ([1]; 50 μg/mL) of the same molecule?
Its value is 3.

And the “Number” value ([1]; 100 μg/mL)?
The value was 3.

And the “Cytotoxicity, MTT assay reading” value ([2]; 6.25 μg/mL)?
The value was 0.413.

What about the “Cytotoxicity, MTT assay reading” value ([2]; 12.5 μg/mL) of the same molecule?
The value was 0.364.

And the “Cytotoxicity, MTT assay reading” value ([2]; 25 μg/mL)?
Its value is 0.345.

And the “Cytotoxicity, MTT assay reading” value ([2]; 50 μg/mL)?
Its value is 0.399.

And the “Cytotoxicity, MTT assay reading” value ([2]; 100 μg/mL)?
Its value is 0.427.

What about the “Cytotoxicity, MTT assay reading” value ([2]; 200 μg/mL) of the same molecule?
Its value is 0.560.

With `O=C(CCc1ccc(O)c(O)c1)CC(CCc1ccc(O)cc1)O[C@@H]1OC[C@@H](O)[C@H](O)[C@H]1O` (stereo partly drawn) [12B-AJ-11B-1, 1-(3,4-dihydroxyphenyl)-7-(4-hydroxyphenyl)-3-heptanone-5-o-β-D-xylopyranose] as the molecule, how does the “antiviral activities (in words)” value [1] read?
Its value is “excellent antiviral activities”.

And the “Number” value ([1]; 12.5 μg/mL)?
Its value is 3.

What about the “Number” value ([1]; 25 μg/mL) of the same molecule?
Its value is 3.

And the “Number” value ([1]; 50 μg/mL)?
The value was 3.

What about the “Number” value ([1]; 100 μg/mL) of the same molecule?
The value was 1.

And the “Cytotoxicity, MTT assay reading” value ([2]; 6.25 μg/mL)?
The value was 0.535.

What about the “Cytotoxicity, MTT assay reading” value ([2]; 12.5 μg/mL) of the same molecule?
The value was 0.399.

And the “Cytotoxicity, MTT assay reading” value ([2]; 25 μg/mL)?
The value was 0.483.

And the “Cytotoxicity, MTT assay reading” value ([2]; 50 μg/mL)?
Its value is 0.487.

What about the “Cytotoxicity, MTT assay reading” value ([2]; 100 μg/mL) of the same molecule?
Its value is 0.316.

What about the “Cytotoxicity, MTT assay reading” value ([2]; 200 μg/mL) of the same molecule?
The value was 0.363.

How did the “antiviral activities (in words)” value [1] turn out when `O=C(/C=C/CCc1ccc(O)cc1)CCc1ccc(O)c(O)c1` [12B-AJ-7A-1, 1-(3′,4′-dihydroxyphenyl)-7-(4″-hydroxyphenyl)-4(E)-hepten-3-one] was run?
Its value is “excellent antiviral activities”.

What about the “Number” value ([1]; 12.5 μg/mL) of the same molecule?
The value was 3.

What about the “Number” value ([1]; 25 μg/mL) of the same molecule?
Its value is 3.

And the “Number” value ([1]; 50 μg/mL)?
Its value is 2.

And the “Number” value ([1]; 100 μg/mL)?
The value was 0.

And the “Cytotoxicity, MTT assay reading” value ([2]; 6.25 μg/mL)?
Its value is 0.424.

And the “Cytotoxicity, MTT assay reading” value ([2]; 12.5 μg/mL)?
Its value is 0.418.

And the “Cytotoxicity, MTT assay reading” value ([2]; 25 μg/mL)?
Its value is 0.347.

And the “Cytotoxicity, MTT assay reading” value ([2]; 50 μg/mL)?
The value was 0.478.

And the “Cytotoxicity, MTT assay reading” value ([2]; 100 μg/mL)?
Its value is 0.411.

What about the “Cytotoxicity, MTT assay reading” value ([2]; 200 μg/mL) of the same molecule?
Its value is 0.531.

What does the source list for `O=C(CCc1ccc(O)cc1)C[C@H](CCc1ccc(O)cc1)O[C@@H]1OC[C@@H](O)[C@H](O)[C@H]1O` [12B-AJ-16A, (5S)1,7-bis(4-hydroxyphenyl)-5-o-β-D-xylopyranoside-heptane-3-one]?
Number of wells which hemagglutination occurs (among 6 wells) ([1]; 12.5 μg/mL): 3; Number of wells which hemagglutination occurs (among 6 wells) ([1]; 25 μg/mL): 3; Number of wells which hemagglutination occurs (among 6 wells) ([1]; 50 μg/mL): 1; Number of wells which hemagglutination occurs (among 6 wells) ([1]; 100 μg/mL): 0; Cytotoxicity, MTT assay reading ([2]; 6.25 μg/mL): 0.441; Cytotoxicity, MTT assay reading ([2]; 12.5 μg/mL): 0.427; Cytotoxicity, MTT assay reading ([2]; 25 μg/mL): 0.432; Cytotoxicity, MTT assay reading ([2]; 50 μg/mL): 0.451; Cytotoxicity, MTT assay reading ([2]; 100 μg/mL): 0.302; Cytotoxicity, MTT assay reading ([2]; 200 μg/mL): 0.309
